Measured values as given in patent US20090022806A1, “Nanoparticle and polymer formulations for thyroid hormone analogs, antagonists and formulations and uses thereof” (priority 2006, published 2009).
Several values for one entry are separate records, joined by “and”; a condition that tells them apart may be missing. Equal values may be shown once. Entries after “also recorded” stand apart in the source; their conditions may differ.

Columns and labels:
[1] = system: chick chorioallantoic membrane (CAM); test: Chick chorioallantoic membrane (CAM) assay of angiogenesis; format: in vivo; conditions: for effect on angiogenesis produced by T4: PTU applied to filter disks (1 mmol/L)
Procedure: Chorioallantoic membrane (CAM) Model of Angiogenesis: In vivo Neovascularization was examined by methods described previously. 9-12 Ten-day-old chick embryos were purchased from SPAFAS (Preston, Conn.) and incubated at 37° C. with 55% relative humidity. A hypodermic needle was used to make a small hole in the shell concealing the air sac, and a second hole was made on the broad side of the egg, directly over an avascular portion of the embryonic membrane that was identified by candling. A false air sac was created beneath the second hole by the application of negative pressure at the first hole, causing the CAM to separate from the shell. A window approximately 1.0 cm 2 was cut in the shell over the dropped CAM with a small-crafts grinding wheel (Dremel, division of Emerson Electric Co.), allowing direct access to the underlying CAM. FGF2 (1 μg/mL) was used as a standard proangiogenic agent to induce new blood vessel branches on the CAM of 10-day-old embryos. Sterile disks of No. 1 filter paper (Whatman International) were pretreated with 3 mg/mL cortisone acetate and 1 mmol/L PTU and air dried under sterile conditions. Thyroid hormone, hormone analogues, FGF2 or control solvents, and inhibitors were then applied to the disks and the disks allowed to dry. The disks were then suspended in PBS and placed on growing CAMs. […] At 24 hours, the MAPK cascade inhibitor PD 98059 was also added to CAMs topically by means of the filter disks.
After incubation at 37° C. with 55% relative humidity for 3 days, the CAM tissue directly beneath each filter disk was resected from control and treated CAM samples. Tissues were washed 3× with PBS, placed in 35-mm Petri dishes (Nalge Nunc), and examined under an SV6 stereomicroscope (Zeiss) at ×50 magnification. Digital images of CAM sections exposed to filters were collected using a 3-charge-coupled device color video camera system (Toshiba) and analyzed with Image-Pro software (Media Cybernetics). The number of vessel branch points contained in a circular region equal to the area of each filter disk were counted. One image was counted in each CAM preparation, and findings from 8 to 10 CAM preparations were analyzed for each treatment condition (thyroid hormone or analogues, FGF2, FGF2 antibody, PD 98059). In addition, each experiment was performed 3 times. The resulting angiogenesis index is the mean±SEM of new branch points in each set of samples.
Ten-day-old chick embryos were purchased £tom SPAFAS (Preston, Conn.) and were incubated at 37° C. with 55% relative humidity. A hypodermic needle was used to make a small hole in the blunt end of the egg and a second hole was made on the broad side of the egg, directly over an avascular portion of the embryonic membrane. Mild suction was applied to the first hole to displace the air sac and drop the CAM away from the shell. Using a Dremel model craft drill (Dremel, Racine, Wis.), a approx. 1.0 cm^2 window was cut in the shell over the false air sac, allowing access to the CAM. Sterile disks of No. 1 filter paper (Whatman, Clifton, N.J.) were pretreated with 3 mg/ml cortisone acetate and 1 mMm propylthiouracil and air dried under sterile conditions. […] The disks were then suspended in PBS and placed on growing CAMS. After incubation for 3 days, the CAM beneath the filter disk was resected and rinsed with PBS. Each membrane was placed in a 35 mm Petri dish and examined under an SV6 stereo-microscope at 50× magnification. Digital images were captured and analyzed with Image-Pro software (Mediacybemetics). The number of vessel branch points contained in a circular region equal to the filter disk were counted. One image from each of 8-10 CAM preparations for each treatment condition was counted, and in addition each experiment was performed 3 times.
Ten-day-old chick embryos were purchased from SPAFAS (Preston, Conn.) and were incubated at 37° C. with 55% relative humidity. Chick CAM assays were performed as previously described.

HMVEC-d cells = test: Microarray analysis (Affymetrix Human U133 Plus 2.0) of HMVEC-d cells; format: cell-based
Procedure: Microarray Analysis Ten micrograms of total RNA from HMVEC-d cells was amplified and biotin-labeled according to GeneChip Expression Analysis Technical Manual (Affymetrix, Santa Clara, Calif.). Fragmented cRNA was hybridized with human gene chip U133 PLUS 2 (Affymetrix); chips were washed and stained with streptavidin R-phycoerythrin (Molecular Probes, Eugene, Oreg.). The chips were scanned and the data were analyzed with Microarray Suite and Data Mining Tool (Affymetrix).
To further identify possible mechanisms of tetrac inhibition of VEGF-stimulated angiogenesis, microarray analysis was performed using the Human U133 Plus 2.0 array from Affymetrix. HDMEC cells were incubated with VEGF at 50 ng/ml for 24 hours with and without Tetrac (3 uM). […] As shown in FIGS. 49A-C, Angiopoietin-like 1 (ANGPTL-1, probe set ID # 231773) expression was increased 5.9 fold following VEGF treatment.

[2] = system: citrated human whole blood; test: Thromboelastography (TEG) clot dynamics; conditions: 25 ng TF + 2.25 mM Ca^+2 or 10 mM Ca^+2; n = 4
Procedure: Thromboelastography (TEG) has been used in various hospital settings since its development by Hartert in 1948. The principle of TEG is based on the measurement of the physical viscoelastic characteristics of blood clot. Clot formation was monitored at 37° C. in an oscillating plastic cylindrical cuvette (“cup”) and a coaxially suspended stationary piston (“pin”) with a 1 mm clearance between the surfaces, using a computerized Thrombelastograph (TEG Model 3000, Haemoscope, Skokie, Ill.). The cup oscillates in either direction every 4.5 seconds, with a 1 second mid-cycle stationary period; resulting in a frequency of 0.1 Hz and a maximal shear rate of 0.1 per second. The pin is suspended by a torsion wire that acts as a torque transducer. […] The torque experienced by the pin (relative to the cup's oscillation) is plotted as a function of time (FIG. 58).
TEG assesses coagulation by measuring various parameters such as the time latency for the initial initiation of the clot (R), the time to initiation of a fixed clot firmness (k) of about 20 mm amplitude, the kinetic of clot development as measured by the angle (α), and the maximum amplitude of the clot (MA). The parameter A measures the width of the tracing at any point of the MA. Amplitude A in mm is a function of clot strength or elasticity. The amplitude on the TEG tracing is a measure of the rigidity of the clot; the peak strength or the shear elastic modulus attained by the clot, G, is a function of clot rigidity and can be calculated from the maximal amplitude (MA) of the TEG tracing.
The following parameters were measured from the TEG tracing: • R, the reaction time (gelation time) represents the latent period before the establishment of a 3-dimensional fibrin gel network (with measurable rigidity of about 2 mm amplitude). • Maximum Amplitude (MA, in mm), is the peak rigidity manifested by the clot. • Shear elastic modulus or clot strength (G, dynes/cm^2) is defined by:
Blood was drawn from consenting volunteers under a protocol approved by the Human Investigations Committee of William Beaumont Hospital. Using the two syringe method, samples were drawn through a 21 gauge butterfly needle and the initial 3 ml blood was discarded.

[3] = system: Human dermal micro-vascular endothelial cells (HDMEC); test: Three-dimensional human micro-vascular endothelial sprouting assay; format: cell-based
Procedure: In Vitro Three-Dimensional Sprout Angiogenesis of Human Dermal Micro-Vascular Endothelial Cells (HDMEC) Cultured on Micro-Carrier Beads Coated with Fibrin: Confluent HDMEC (passages 5-10) were mixed with gelatin-coated Cytodex-3 beads with a ratio of 40 cells per bead. Cells and beads (150-200 beads per well for 24-well plate) were suspended with 5 ml EBM+15% normal human serum, mixed gently every hour for first 4 hours, then left to culture in a CO2 incubator overnight. The next day, 10 ml of fresh EBM+5% HS were added, and the mixture was cultured for another 3 hours. Before experiments, the culture of EC-beads was checked; then 500 ul of PBS was added to a well of 24-well plate, and 100 ul of the EC-bead culture solution was added to the PBS. The number of beads was counted, and the concentration of EC/beads was calculated.
A fibrinogen solution (1 mg/ml) in EBM medium with or without angiogenesis factors or testing factors was prepared. For positive control, 50 ng/ml VEGF+25 ng/ml FGF2 was used. EC-beads were washed with EBM medium twice, and EC-beads were added to fibrinogen solution. The experiment was done in triplicate for each condition. The EC-beads were mixed gently in fibrinogen solution, and 2.5 ul human thrombin (0.05 U/ul) was added in 1 ml fibrinogen solution; 300 ul was immediately transferred to each well of a 24-well plate. The fibrinogen solution polymerizes in 5-10 minutes; after 20 minutes, we added EBM+20% normal human serum+10 ug/ml aprotinin. The plate was incubated in a CO2 incubator. It takes about 24-48 hours for HDMEC to invade fibrin gel and form tubes.
A micro-carrier in vitro angiogenesis assay previously designed to investigate bovine pulmonary artery endothelial cell angiogenic behavior in bovine fibrin gels [Nehls and Drenckhahn, 1995a, b] was modified for the study of human microvascular endothelial cell angiogenesis in three-dimensional ECM environments (FIGS. 1 and 2). Briefly, human fibrinogen, isolated as previously described [Feng et al, 1999], was dissolved in M199 medium at a concentration of 1 mg/ml (pH 7.4) and sterilized by filtering through a 0.22 micron filter. An isotonic 1.5 mg/ml collagen solution was prepared by mixing sterile Vitrogen 100 in 5×M199 medium and distilled water. The pH was adjusted to 7.4 by 1N NaOH. In certain experiments, growth factors and ECM proteins (such as VEGF, bFGF, PDGF-BB, serum, gelatin, and fibronectin) were added to the fibrinogen or collagen solutions. About 500 EC-beads were then added to the 1 mg/ml fibrinogen or 1.5 mg/ml collagen solutions. Subsequently, EC-beads-collagen or EC-beads-fibrinogen suspension (500 EC-beads/ml) was plated onto 24-well plates at 300 ul/well. EC-bead-collagen cultures were incubated at 37° C. to form gel. The gelling of EC-bead-fibrin cultures occurred in less than 5 minutes at room temperature after the addition of thrombin to a final concentration of 0.5 U/ml. After gelation, 1 ml of fresh assay medium (EBM supplemented with 20% normal human serum for HDMEC or EBM supplemented with 10% fetal bovine serum was added to each well. The angiogenic response was monitored visually and recorded by video image capture. Specifically, capillary sprout formation was observed and recorded with a Nikon Diaphot-TMD inverted microscope (Nikon Inc.; Melville, N.Y.), equipped with an incubator housing with a Nikon NP-2 thermostat and Sheldon #2004 carbon dioxide flow mixer. The microscope was directly interfaced to a video system consisting of a Dage-MTI CCD-72S video camera and Sony 12″ PVM-122 video monitor linked to a Macintosh G3 computer. The images were captured at various magnifications using Adobe Photoshop. The effect of angiogenic factors on sprout angiogenesis was quantified visually by determining the number and percent of EC-beads with capillary sprouts. One hundred beads (five to six random low power fields) in each of triplicate wells were counted for each experimental condition. All experiments were repeated at least three times. […]

[4] = system: phosphorylated ERK1/2 in ECV304 endothelial cells; test: MAPK (ERK1/2) activation in ECV304 cells, nuclear pERK1/2 immunoblot; format: cell-based; conditions: PD 98059 30 μmol/L or CGP41251 100 nmol/L for 30 minutes before 10^−7 M T4
Procedure: ECV304 endothelial cells were cultured in M199 medium with 0.25% hormone-depleted serum 13 for 2 days. […] Nuclear fractions were pre-pared from all samples by our method reported previously, the proteins separated by polyacrylamide gel electrophoresis, and transferred to membranes for immunoblotting with antibody to phosphorylated ERK 1/2.

[5] = VEGF 50 ng/ml, 24 hours, vs untreated
[6] = hormone 0.1 uM alone, pretreated FGF2 1.25 ng/ml + VEGF […], day 3

## CCCc1cc(=O)[nH]c(=S)[nH]1 [PTU, 6-N-propyl-2-thiouracil]
[1]
  effect on angiogenesis produced by T4: no inhibitory effect
[1]; listed as Propylthiouracil
  effect on angiogenesis produced by T4: has no effect

## FGF2: human recombinant FGF2, standard proangiogenic agent
[1]; 1 μg of FGF2
  fold increase in angiogenesis index: 2-3 fold
[1]; FGF2 1 μg/ml on filter disk, vs PBS
  fold increase in blood vessel branch formation: 2.2 fold and 2.4 fold
[1]; FIG. 4 experiment with FGF2 antibody, concentration not given, 3 experiments
  fold increase in angiogenesis: 2 fold

## O=C(O)Cc1cc(I)c(Oc2ccc(O)c(I)c2)c(I)c1 [TRIAC, triiodothyroacetic acid]
[1]; CAM model
  block of the pro-angiogenic effect of T4 or T4-agarose: 100%

## VEGF
HMVEC-d cells; VEGF 50 ng/ml, 24 hours
  ANGPTL-3 expression: unaffected
HMVEC-d cells; [5]
  ANGPTL-1 expression, fold increase: 5.9 fold
  ANGPTL-2 expression, fold increase: 1.6 fold
HMVEC-d cells; VEGF treatment
  MMP-15 expression, fold increase: 5.1 fold
  MMP-19 expression, fold increase: 2.9 fold
  MMP-24 expression: slightly decreased

## [Ca+2].[Cl-].[Cl-] [Ca^+2, Calcium Chloride]
[2]
  K: 7.0 ± 0.7 min
  MA (mm): 56.5 ± 2.2 mm
  r: 14.5 ± 2.5 min
  α (angle): 47.3 ± 2.7 angle

## N[C@@H](Cc1cc(I)c(Oc2ccc(O)c(I)c2)c(I)c1)C(=O)O [T3, 3,5,3′-triiodo-L-thyronine]
[3]; 0.01-0.1 μM
  stimulation of angiogenesis: significant (P<0.01) stimulation of angiogenesis
[3]; FGF2 25 ng + VEGF 50 ng, T3 20 ng, T4 23 ng, T4-agarose 23 ng, pre-treated with FGF2 1.25 ng/ml + VEGF […]
  Mean Tube Vessel Length (mm) ± SD: 1.88 ± 0.21 mm
[3]; [6]
  Mean number of Migrated cells ± SD: 188 ± 15
  Mean vessel Length (mm) ± SD: 0.91 ± 0.04 mm

## COc1cccc(-c2cc(=O)c3ccccc3o2)c1N [PD 98059]
[3]; tetrac 0.1 μM, PD 98059, XT199
  inhibition of the pro-angiogenesis action of T3, T4 or T4-agarose: significantly (P<0.01) blocked
[1]; PD 98059
  inhibition of angiogenesis induced by FGF2 (1 μg/mL): effectively blocked; also recorded: also inhibited
[1]; PD 98059 3 μmol/L
  inhibition of angiogenesis stimulated by T4 (0.1 μmol/L) and T3 (1 nmol/L) together: completely blocked; also recorded: fully inhibited
[1]; PD 98059 at 0.8-8 μg
  block of the pro-angiogenesis effect of T4 or FGF2: totally blocked
[4]
  inhibition of T4-induced ERK1/2 activation: inhibited; also recorded: blocked by both inhibitors
